Consider 4 molecules from patent publication US12595269B2, “Morpholine-like monoamine releasers” (Solvonis Therapeutics Ireland Holdings Limited, priority 2022, dated 2026).

The target in data set [1] is T1, SERT (serotonin transporter) (Homo sapiens, UniProt P31645).
T1 construct: expressed in transfected cells; host or cells: CHO
In words: SERT uptake scintillation proximity assay, inhibition of [3H]-serotonin uptake in hSERT-CHO cells. The data set is classed as cell-based. As to conditions: read-out: SERT uptake pIC50 (converted). Here is the method:
Overview: Eighty-eight compounds were tested in SERT (serotonin transporter) and DAT (dopamine transporter) uptake assays (completed as scintillation proximity assays, or SPAs, in a recombinant CHO cell line). Fifty-two compounds were tested in release assays for 5-HT and DA release in rat synaptosomes.
In addition, hSERT-CHO cells were detached using Versene and added at a density of 150,000 cells/mL to the SPA Mixture, which contains the following components in the Assay Buffer described above: 0.5 mg/mL SPA Imaging beads (RPNQ0001, PerkinElmer), 10 μM pargyline and 35 nM of [^3H]-serotonin (NET498, PerkinElmer). The SPA Mixture was added 20 μL/well to 384 well plates containing 0.1 μL/well of test compound in neat DMSO (11 points of 1:5 serial dilution, 0.5% DMSO final), 0.1 μL of DMSO (total uptake), or 0.1 μL of the standard inhibitor indatraline (1 μM, nonspecific uptake). Plates were sealed with a Top-seal A and read using a Microbeta counter (PerkinElmer) after 120 minutes of incubation at room temperature.
For both tests, the raw experimental data (cpm) were elaborated for the determination of pIC50/IC50 values as % inhibition of specific uptake. Concentration-response curves of MDMA, MDDMA, citalopram and GBR-12909 were used as internal standards in all experiments, and the signal window was monitored in each plate performing Z′ calculations, as described in Zhang et al., J. Biomol. Screen., 1999; 4: 67-73.

Data set [2] is described as follows: Lipophilicity by Chromatographic Hydrophobicity Index (CHI LogD). The data set is classed as physicochemical. The method, then:
Methods and Procedure: The methods employed herein comply with previously described procedures to assure data integrity and adherence to GLP regulations. Briefly, a CHI value was determined by comparing the retention time of a test compound to a linear curve based on a set of calibration compounds with known CHI values. The resultant CHI value can be further converted to a CHI Log D value using an established linear regression equation.
Reference compounds with known CHI values, including theophylline, phenyltetrazole, benzymidazole, colchicine, phenyltheophylline, acetophenone, indole, propiophenone, butyrophenone, valerophenone, were used to create a calibration line. Test compounds (10 mM) were prepared in DMSO on the same day of the experiment, when feasible. For sample preparation, 10 μL of test solution was diluted with 190 μL of a solution of Ammonium Acetate solution (50 mM) and Acetonitrile (1:1) pH7.4, which was then mixed via shaking at room temperature for 10 minutes. Test solutions were compared with the reference compounds via HPLC-UV, as described in Example 19. The gradient was calibrated by determining the retention time of each reference compound on a reverse phase LC system at a pH of 7.4.
The relationship of CHI with retention time is “CHI=Atr+B,” wherein A and B are the constants of a linear plot of CHI against their gradient retention times, and tr is retention time.
The test compounds were analyzed on the same system as the test mix. The equation generated from the calibration line for the reference compounds was then used to determine the unknown CHI value for the test compound. From the CHI value, the Log D was extrapolated according to the following equation, as described in Valko et al, 2001: Log D=0.0525×CHI pH7.4-1.467. Log D represents the log of the partitioning of a chemical compound between the lipid and aqueous phases.

A short description of data set [3]: Plasma protein binding by equilibrium dialysis, rat plasma. The data set is classed as in vitro ADME, Sprague Dawley (SD) rats. As to conditions: male, Sprague Dawley, pH 7.4. Here is the method: Methods and Procedure: This study was performed in agreement with the previously described procedures to assure data integrity and adherence to GLP standards. Plasma protein binding and blood tissue binding of test items (0.5 μM) was determined using biological samples from male Sprague Dawley (SD) rats and humans. […] Dexamethasone was used as a control for lung tissue binding. Various biological samples were spiked with test compounds according to the methods that follow.
Preparation of plasma or blood samples: An appropriate amount of test compound was dissolved in DMSO to yield a 10 mM solution. Further dilutions, to obtain 50 μM working solutions (WS), were then prepared using 50% acetonitrile in Milli-Q water. These 100×WS were used to spike plasma or blood to obtain a final concentration of 0.5 μM. From this initial spiking solution, control samples (n=3), referred to as T=0, were immediately extracted and used to calculate the recovery of the test item.
An equilibrium dialysis method was performed to determine protein binding in the various biological samples described herein. Materials were prepared and methods were in accordance with the following procedures. […]
Dialysis buffer was prepared by dissolving Na2HPO4 8.69 g, KH2PO4 1.90 g, and NaCl 4.11 g in 1 L of MilliQ water, and adjusting the pH to 7.4 with H3PO4. […] In order to control the integrity of the membrane after the dialysis process, the presence of protein was assessed in the buffer compartment. […]
Samples were analyzed in a LC-MS/MS system using an analytical method to monitor the compound to internal standard peak area ratios as representative of the compound concentrations. Alternatively, samples were analyzed by RapidFire.
Protein binding in plasma, blood, brain, and lung tissue samples were determined with the following formula: Afu=Buffer/x, wherein “x” may be plasma, blood, brain, or lung, and “Afu” is the apparent fraction unbound, and the other variables refer to the analyte/internal standard ratio determined in their specific compartment (buffer, plasma, blood, brain homogenate, and lung homogenate); […]
(In equilibrium dialysis only unbound substance equilibrates across the membrane.)

The mark [4] stands for this setting: pH 7.4, as stated in text under Table 10, read-out: calculated Log D values.
The mark [5] stands for this setting: pH 7.4, pH 7.4, HPLC-UV, read-out: Chi LogD.

The structures appear in SMILES notation. Like-named read-outs stand apart in the source and are kept apart here. Where only a bound is given, the exact number is not on record here.

T1 sequence (P31645 whole entry): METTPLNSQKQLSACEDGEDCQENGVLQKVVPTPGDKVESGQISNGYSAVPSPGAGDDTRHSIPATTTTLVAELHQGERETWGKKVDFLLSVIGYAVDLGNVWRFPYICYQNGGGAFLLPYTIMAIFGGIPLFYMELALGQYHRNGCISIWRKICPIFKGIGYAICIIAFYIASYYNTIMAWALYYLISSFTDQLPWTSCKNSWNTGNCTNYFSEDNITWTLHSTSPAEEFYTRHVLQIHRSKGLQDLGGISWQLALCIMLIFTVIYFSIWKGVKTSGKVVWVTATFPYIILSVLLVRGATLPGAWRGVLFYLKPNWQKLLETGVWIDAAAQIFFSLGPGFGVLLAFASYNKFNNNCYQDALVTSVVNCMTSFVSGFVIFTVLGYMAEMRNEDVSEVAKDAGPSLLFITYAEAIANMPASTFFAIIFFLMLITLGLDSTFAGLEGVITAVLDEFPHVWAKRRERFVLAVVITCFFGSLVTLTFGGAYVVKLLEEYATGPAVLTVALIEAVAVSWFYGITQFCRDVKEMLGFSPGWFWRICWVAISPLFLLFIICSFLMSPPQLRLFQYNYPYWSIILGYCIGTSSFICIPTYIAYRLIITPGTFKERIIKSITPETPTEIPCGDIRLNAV

A word on the fraction unbound: it is the share of the substance not bound to proteins or other matrix. A higher fraction unbound goes with weak binding. For the molecule `Clc1ccc(C23CNC(CO2)C3)cc1Cl` (centres unmarked) [522A, 1-(3,4-dichlorophenyl)-2-oxa-5-azabicyclo[2.2.1]heptane], the IC50 in data set [1] was 0.0562 µM. The chromatographic logD in data set [2] (setting [4]) is 1.15; in data set [2] (setting [5]) it was 0.75. This molecule returned a free fraction (fraction unbound) at 5 h, 0.5 µM in data set [3] of 0.12.

`Clc1ccc([C@@]23CN[C@@H](CO2)C3)cc1Cl` (single isomer, unassigned) [518A]: the IC50 in data set [1] is 0.0813 µM. The chromatographic logD in data set [2] (setting [4]) was 1.15; in data set [2] (setting [5]) it was 0.75. In addition, the fraction unbound at 5 h, 0.5 µM in data set [3] is 0.106.

With `Clc1ccc([C@]23CN[C@H](CO2)C3)cc1Cl` (single isomer, unassigned) [516A], the IC50 in data set [1] was 0.0468 µM. The chromatographic logD in data set [2] (setting [4]) was 1.15; in data set [2] (setting [5]), 0.75.

Regarding `CNC(C)Cc1ccc2c(c1)OCO2` (centres unmarked) [MDMA, reference compound], the chromatographic logD in data set [2] (setting [4]) and in data set [2] (setting [5]) was 0.29 throughout. Also, the fraction unbound at 5 h, 0.5 µM in data set [3] is > 0.5.
